# Where two headings read alike, the source gives them in different places.
# Assay: Phase 1 study of pharmacokinetics and safety of imeglimin in subjects with renal impairment compared to normal renal function
# Type: in vivo, human
# Conditions: for concentration at 8 day / Vd/F / Tmax / Cmax / half-life / AUC / AUC(0-t) / CL renal: human, po; for concentration at 8 day / Vd/F / Tmax / Cmax / half-life / AUC / AUC(0-t): plasma; for Vd/F: read-out: Vz/F; for Tmax: median, read-out: tmax; for AUC: read-out: AUC0-τ; for CL renal: urine; for difference in exposure vs normal subjects: Day 8
# Experimental: An open-label, parallel-group, multi-center, multiple oral dose study to investigate the pharmacokinetics of imeglimin in subjects with renal impairment compared to subjects with normal renal function was completed.
# In this study, a total of 51 subjects received imeglimin at the daily dose of 1000 mg, administered either as 1000 mg QD (once a day) or 500 mg bid (twice a day) during 8 days. […] Twenty-four control subjects with normal renal function were matched to mild and moderate (10 receiving QD and 8 receiving bid regimen) and to severe (6 receiving bid regimen) renal impaired subjects. Measurement of the urine to plasma ratio of creatinine using 24 hours urine sampling was calculated (CLCrea).
# Imeglimin was administered in the morning time during 8 consecutive days in the group of subjects receiving 1000 mg once a day and in the morning and evening time during 7 consecutive days followed by a morning administration of 500 mg in the morning time on Day 8 in the group of subjects receiving 500 mg twice a day. Morning administrations on Days 1 and 8 were performed on a fasted state, after a 10 hours overnight fasting and during 4 hours after imeglimin administration.
# Inclusion Criteria: For subjects with normal renal functions: CLCrea>80 mL/min based on calculation using 24-hrs sampling on day −2. For subjects with impaired renal function: CLCrea 50 to 80 mL/min for subjects with mild renal impairment, 30 to <50 mL/min for subjects with moderate renal impairment, and <30 mL/min for subjects with severe renal impairment based on calculation using 24-hrs sampling on day −2.
# Pharmacokinetic parameters included apparent volume of distribution during the terminal phase following extravascular administration (Vz/F), area under the curve of the plasma concentration as a function of time (AUC0-t), the maximum observed concentration (Cmax), the time to maximum concentration (tmax), the plasma half-life (t1/2), the total body clearance of drug from plasma following extravascular administration (CL/F), and other parameters.
# The urinary excretion parameters of imeglimin in subjects with differing degrees of renal impairment following QD or bid oral doses of imeglimin on day 8 are summarized in Table 3 and Table 4. Parameters measured include amount of unchanged drug excreted in urine as a function of time (Ae0-t), renal clearance (CLR), and the amount of unchanged drug excreted in urine during one dosing interval (Ae0-τ), and the percentage of administered dose excreted in urine during one dosing interval (fe0-τ).
# For the evaluation of safety and tolerability of multiple oral doses of 1000 mg imeglimin QD (i.e. a total dose of 8000 mg imeglimin) or 500 mg imeglimin BID (i.e. a total dose of 7500 mg imeglimin), laboratory tests (hematology, clinical chemistry, urinalysis), determination of vital signs, ECG recordings, questioning of AEs and physical examinations were performed. […] The incidence of AEs observed within the course of the study was low. Overall 31 out of 51 subjects reported 54 treatment emergent AEs. Of these, only 15 were judged as likely related to the study drug. The majority (39 AEs) were assessed as unlikely related. Based on these low incidence no clear differences between the dose regimens and between the renal impairment groups can be shown.
# [1] = 500 mg, 500 mg bid oral, Day 8, Part 1 normal renal function (N = 8), geometric mean
# [2] = 500 mg, 500 mg bid oral, Day 8, Part 2 CKD Stage 4 (severe renal impairment; N = 5), geometric mean
# [3] = 500 mg, 500 mg bid oral, Day 8, Part 2 normal renal function (N = 6), geometric mean
# [4] = 1000 mg, 1000 mg QD oral, Day 8, CKD Stage 3 (moderate renal impairment; N = 6), geometric mean
# [5] = 1000 mg, 1000 mg QD oral, Day 8, CKD stage 2 (mild renal impairment; N = 5), geometric mean
# [6] = 1000 mg, 1000 mg QD oral, Day 8, normal renal function (N = 8), geometric mean
# [7] = 1000 mg, 1000 mg QD oral, Day 8, normal renal function (N = 10), geometric mean
compound,measurement,setting,value
"C[C@H]1N=C(N(C)C)N=C(N)N1 [imeglimin, (6R)—N^2, N^2,6-trimethyl-3,6-dihydro-1,3,5-triazine-2,4-diamine]",concentration at 8 day,"500 mg, 500 mg bid oral, Day 8, Part 1 CKD Stage 3 (moderate renal impairment; N = 6), geometric mean, read-out: Cav",1430 ng/mL
same,Vd/F,"500 mg, 500 mg bid oral, Day 8, Part 1 CKD Stage 3 (moderate renal impairment; N = 6), geometric mean",922 L
same,Tmax,"500 mg, 500 mg bid oral, Day 8, Part 1 CKD Stage 3 (moderate renal impairment; N = 6)",3.5 h
same,Cmax,[1],1030 ng/mL
same,half-life,[1],792 min
same,AUC,[1],7390 ng·h/mL
same,concentration at 8 day,"500 mg, 500 mg bid oral, Day 8, Part 1 normal renal function (N = 8), geometric mean, read-out: Cav",616 ng/mL
same,concentration at 8 day,"500 mg, 500 mg bid oral, Day 8, Part 1 normal renal function (N = 8), geometric mean, read-out: Cmin",202 ng/mL
same,Vd/F,[1],1290 L
same,Tmax,"500 mg, 500 mg bid oral, Day 8, Part 1 normal renal function (N = 8)",3.5 h
same,Cmax,[2],2860 ng/mL
same,half-life,[2],1060 min
same,AUC,[2],24800 ng·h/mL
same,concentration at 8 day,"500 mg, 500 mg bid oral, Day 8, Part 2 CKD Stage 4 (severe renal impairment; N = 5), geometric mean, read-out: Cav",2070 ng/mL
same,Vd/F,[2],511 L
same,Tmax,"500 mg, 500 mg bid oral, Day 8, Part 2 CKD Stage 4 (severe renal impairment; N = 5)",3.5 h
same,Cmax,[3],998 ng/mL
same,half-life,[3],900 min
same,AUC,[3],6970 ng·h/mL
same,concentration at 8 day,"500 mg, 500 mg bid oral, Day 8, Part 2 normal renal function (N = 6), geometric mean, read-out: Cav",581 ng/mL
same,Vd/F,[3],1550 L
same,Tmax,"500 mg, 500 mg bid oral, Day 8, Part 2 normal renal function (N = 6)",3.75 h
same,AUC(0-t),[4],29100 ng·h/mL
same,Cmax,[4],2570 ng/mL
same,half-life,[4],1400 min
same,concentration at 8 day,"1000 mg, 1000 mg QD oral, Day 8, CKD Stage 3 (moderate renal impairment; N = 6), geometric mean, read-out: Cav",1210 ng/mL
same,concentration at 8 day,"1000 mg, 1000 mg QD oral, Day 8, CKD Stage 3 (moderate renal impairment; N = 6), geometric mean, read-out: Cmin",335 ng/mL
same,Vd/F,[4],1160 L
same,Tmax,"1000 mg, 1000 mg QD oral, Day 8, CKD Stage 3 (moderate renal impairment; N = 6)",5 h
same,AUC(0-t),[5],20100 ng·h/mL
same,Cmax,[5],2050 ng/mL
same,half-life,[5],900 min
same,concentration at 8 day,"1000 mg, 1000 mg QD oral, Day 8, CKD stage 2 (mild renal impairment; N = 5), geometric mean, read-out: Cav",838 ng/mL
same,concentration at 8 day,"1000 mg, 1000 mg QD oral, Day 8, CKD stage 2 (mild renal impairment; N = 5), geometric mean, read-out: Cmin",178 ng/mL
same,Vd/F,[5],1070 L
same,Tmax,"1000 mg, 1000 mg QD oral, Day 8, CKD stage 2 (mild renal impairment; N = 5)",4 h
same,half-life,[6],984 min
same,Vd/F,[6],1570 L
same,AUC(0-t),[7],15400 ng·h/mL
same,Cmax,[7],1750 ng/mL
same,concentration at 8 day,"1000 mg, 1000 mg QD oral, Day 8, normal renal function (N = 10), geometric mean, read-out: Cmin",115 ng/mL
same,Tmax,"1000 mg, 1000 mg QD oral, Day 8, normal renal function (N = 10)",4 h
same,CL renal,"500 mg, 500 mg bid oral, Day 8, CKD Stage 2 (mild renal impairment) (N = 4), geometric mean (CV %), read-out: CLR",323 mL/min
same,CL renal,"500 mg, 500 mg bid oral, Day 8, CKD Stage 3 (moderate renal impairment) (N = 6), geometric mean (CV %), read-out: CLR",193 mL/min
same,CL renal,"500 mg, 500 mg bid oral, Day 8, CKD Stage 4 (severe renal impairment) (N = 5), geometric mean (CV %), read-out: CLR",140 mL/min
same,CL renal,"500 mg, 500 mg bid oral, Day 8, normal renal function (N = 6), geometric mean (CV %), read-out: CLR",548 mL/min
same,CL renal,"500 mg, 500 mg bid oral, Day 8, normal renal function (N = 8), geometric mean (CV %), read-out: CLR",501 mL/min
same,CL renal,"1000 mg, 1000 mg QD oral, Day 8, CKD Stage 2 (mild renal impairment), N = 2, min, max, read-out: CLR (renal clearance)",388 to 522 mL/min
same,CL renal,"1000 mg, 1000 mg QD oral, Day 8, CKD Stage 3 (moderate renal impairment) (N = 6), geometric mean, read-out: CLR (renal clearance)",197 mL/min
same,CL renal,"1000 mg, 1000 mg QD oral, Day 8, normal renal function (N = 10), geometric mean, read-out: CLR (renal clearance)",418 mL/min
same,difference in exposure vs normal subjects,mild renal impairment,up to 1.5 fold
same,difference in exposure vs normal subjects,moderate renal impairment,≤ 2.3 fold
same,AEs assessed as unlikely related,of 54 treatment emergent AEs,39
same,AEs judged as likely related to the study drug,of 54 treatment emergent AEs,15
same,Steady-state attained by,repeated dosing of 1000 mg QD and 500 mg bid,≤ 6 days
same,decrease in renal clearance vs normal subjects,severe renal impairment,≤ 74%
same,decrease in total oral body clearance vs normal subjects,severe renal impairment,up to 72%
same,difference in exposure vs normal subjects,severe renal impairment,up to 3.6 fold
same,general safety and tolerability assessment,total daily dose of 1000 mg over 8 days,good or very good tolerability

# Source: patent US12036226B2, “Methods of treating subjects having diabetes with chronic kidney disease” (Poxel SA, priority 2018, dated 2024)
